In brackets after ≈: the same amount, converted by molar mass. Where a SMILES comes first, the peptide text is derived from it. [ ]: non-standard residue; d: D form. Cha = N[C@@H](CC1CCCCC1)C(=O)O; Nle = CCCC[C@H](N)C(=O)O
Columns and labels:
[1] = test system: Staphylococcus aureus ATCC 25923; conditions: ATCC 25923
Method: (§1) Lyophilized peptides were weighed on a Microbalance (Mettler MT5) and dissolved in sterile water containing 0.01% acetic acid Tachyplesin was purchased from Bachem Ltd. (Bubendorf Switzerland).
(§2) The antimicrobial activities of the peptides were determined by the standard NCCLS broth microdilution method (see ref 1, below) examined in sterile 96-wells plates (Nunclon polystyrene microtiter plates) in a total volume of 100 μl. […] 10^6 colony forming units (CFU)/ml for bacteria or 5×10^3 CFU/ml for Candida. Aliquots (50 μl) of the innocula were added to 50 μl of MH broth containing the peptide in serial twofold dilutions. The microorganisms used were Escherichia coli (ATCC 25922), Pseudomnonas aeruginosa (P. aeruginosa) (ATCC 27853), Stahylococcus aureus (ATCC 29213 and ATCC 25923) and Candida albicans. A selected number of peptides were screened for activity against a larger panel of gram-negative strains. These strains were; Escherichia coli ATCC 43827 and clinical isolates of Pseudomonas (P. aeruginosa V07 14482, P. aeruginosa 15288, P. aeruginosa V02 15328 and P. aeruginosa V09 16085) and Acinetobacter (Acinetobacter V04 19905/1, Acinetobacter V12 21143/1 and Acinetobacter V12 21193/1).

Candida albicans = test system: Candida albicans
Method: as §1, §2

[2] = test system: Staphylococcus aureus ATCC 29213; conditions: ATCC 29213
Method: as §1, §2

[3] = test system: Escherichia coli (ATCC 25922); conditions: ATCC 25922
Method: as §1, §2

MIC Staphylococcus aureus ATCC 25923 [1] [µg/mL] | MIC Candida albicans (Candida albicans) [µg/mL] | MIC Staphylococcus aureus ATCC 29213 [2] [µg/mL] | MIC Escherichia coli ATCC 25922 [3] [µg/mL] | Structure (SMILES)
100 (≈ 63.4 µM) | 100 (≈ 63.4 µM) | 100 (≈ 63.4 µM) | 25 (≈ 15.8 µM) | CC(C)C[C@@H]1NC(=O)[C@H](CCCNC(=N)N)NC(=O)[C@H](CCCNC(=N)N)NC(=O)[C@H](CCCNC(=N)N)NC(=O)[C@H](Cc2ccc(O)cc2)NC(=O)[C@H](Cc2ccc(O)cc2)NC(=O)[C@H](CCCNC(=N)N)NC(=O)[C@@H]2CCCN2C(=O)[C@H]2CCCN2C(=O)[C@H](CCCNC(=N)N)NC(=O)[C@H](Cc2ccc(O)cc2)NC1=O [Example 11] (cyclo(RYYRRRLYR[dP]P))
50 (≈ 30.4 µM) | 25 (≈ 15.2 µM) | 25 (≈ 15.2 µM) | 25 (≈ 15.2 µM) | CC(C)C[C@@H]1NC(=O)[C@H](CCCNC(=N)N)NC(=O)[C@H](CCCNC(=N)N)NC(=O)[C@H](CCCNC(=N)N)NC(=O)[C@H](Cc2ccccc2)NC(=O)[C@H](Cc2ccccc2)NC(=O)[C@H](CC(C)C)NC(=O)[C@H](CCCNC(=N)N)NC(=O)[C@@H]2CCCN2C(=O)[C@H]2CCCN2C(=O)[C@H](CCCNC(=N)N)NC(=O)[C@H](Cc2ccccc2)NC1=O [Example 36] (cyclo(RLFFRRRLFR[dP]P))
50 (≈ 31.2 µM) | 25 (≈ 15.6 µM) | 25 (≈ 15.6 µM) | 25 (≈ 15.6 µM) | CC(C)C[C@@H]1NC(=O)[C@H](CCCNC(=N)N)NC(=O)[C@H](CCCNC(=N)N)NC(=O)[C@H](CCCNC(=N)N)NC(=O)[C@H](Cc2ccccc2)NC(=O)[C@H](Cc2ccccc2)NC(=O)[C@H](CC(C)C)NC(=O)[C@H](CC(C)C)NC(=O)[C@@H]2CCCN2C(=O)[C@H]2CCCN2C(=O)[C@H](CCCNC(=N)N)NC(=O)[C@H](Cc2ccccc2)NC1=O [Example 40] (cyclo(LLFFRRRLFR[dP]P))
50 (≈ 28.5 µM) | 25 (≈ 14.2 µM) | 25 (≈ 14.2 µM) | 4.7 (≈ 2.68 µM) | CC(C)C[C@@H]1NC(=O)[C@H](Cc2ccccc2)NC(=O)[C@H](CC(C)C)NC(=O)[C@H](CCCNC(=N)N)NC(=O)[C@@H]2CCCN2C(=O)[C@H]2CCCN2C(=O)[C@H](CC(C)C)NC(=O)[C@H](CCCNC(=N)N)NC(=O)[C@H](Cc2ccccc2)NC(=O)[C@H](Cc2ccccc2)NC(=O)[C@H](CCCNC(=N)N)NC(=O)[C@H](CCCNC(=N)N)NC(=O)[C@H](CCCNC(=N)N)NC1=O [Example 59] (cyclo(RLFLRRRFFRL[dP]P))
25 (≈ 14.2 µM) | 12.5 (≈ 7.12 µM) | 12.5 (≈ 7.12 µM) | 6.2 (≈ 3.53 µM) | CC(C)C[C@@H]1NC(=O)[C@H](Cc2ccccc2)NC(=O)[C@H](CC(C)C)NC(=O)[C@H](Cc2ccccc2)NC(=O)[C@@H]2CCCN2C(=O)[C@H]2CCCN2C(=O)[C@H](CCCNC(=N)N)NC(=O)[C@H](CCCNC(=N)N)NC(=O)[C@H](Cc2ccccc2)NC(=O)[C@H](CC(C)C)NC(=O)[C@H](CCCNC(=N)N)NC(=O)[C@H](CCCNC(=N)N)NC(=O)[C@H](CCCNC(=N)N)NC1=O [Example 63] (cyclo(FLFLRRRLFRR[dP]P))

Second part, the compound before the results:

Structure (SMILES) | MIC Staphylococcus aureus ATCC 25923 [1] [µg/mL] | MIC Candida albicans (Candida albicans) [µg/mL] | MIC Staphylococcus aureus ATCC 29213 [2] [µg/mL] | MIC Escherichia coli ATCC 25922 [3] [µg/mL]
CC(C)C[C@@H]1NC(=O)[C@H](Cc2ccc(O)cc2)NC(=O)[C@H](CCCNC(=N)N)NC(=O)[C@H](CCCNC(=N)N)NC(=O)[C@H](CCCNC(=N)N)NC(=O)[C@H](Cc2ccc(O)cc2)NC(=O)[C@H](CC(C)C)NC(=O)[C@H](CC(C)C)NC(=O)[C@H](Cc2ccc(O)cc2)NC(=O)[C@H](CCCNC(=N)N)NC(=O)[C@@H]2CCCN2C(=O)[C@H]2CCCN2C(=O)[C@H](CCCNC(=N)N)NC(=O)[C@H](CCCNC(=N)N)NC(=O)[C@H](Cc2ccc(O)cc2)NC(=O)[C@H](CC(C)C)NC1=O [Example 71] (cyclo(RYLLYRRRYLLYRR[dP]P)) | 12.5 (≈ 5.59 µM) | 50 (≈ 22.4 µM) | 12.5 (≈ 5.59 µM) | 12.5 (≈ 5.59 µM)
CC(C)C[C@@H]1NC(=O)[C@H](CCCNC(=N)N)NC(=O)[C@H](CCCCN)NC(=O)[C@@H]2CCCN2C(=O)[C@H]2CCCN2C(=O)[C@H](CCCNC(=N)N)NC(=O)[C@H](CC(C)C)NC(=O)[C@H](C(C)C)NC(=O)[C@H](CCCCN)NC(=O)[C@H](C(C)C)NC(=O)[C@H](Cc2ccc(O)cc2)NC(=O)[C@H](Cc2c[nH]c3ccccc23)NC(=O)[C@H](CCCNC(=N)N)NC(=O)[C@H](CCCNC(=N)N)NC(=O)[C@H](CCCNC(=N)N)NC(=O)[C@H](Cc2c[nH]c3ccccc23)NC(=O)[C@H](Cc2ccc(O)cc2)NC(=O)[C@H](CCCCN)NC1=O [Example 87] (cyclo(KRLKYWRRRWYVKVLR[dP]P)) | 9.4 (≈ 3.79 µM) | 12.5 (≈ 5.03 µM) | 9.4 (≈ 3.79 µM) | 6.2 (≈ 2.5 µM)
CC(C)C[C@@H]1NC(=O)[C@H](CCCNC(=N)N)NC(=O)[C@H](CC(C)C)NC(=O)[C@@H]2CCCN2C(=O)[C@H]2CCCN2C(=O)[C@H](C(C)C)NC(=O)[C@H](CCCNC(=N)N)NC(=O)[C@H](Cc2ccc(O)cc2)NC(=O)[C@H](CCCCN)NC(=O)[C@H](Cc2ccccc2)NC(=O)[C@H](CCCNC(=N)N)NC(=O)[C@H](CCCNC(=N)N)NC(=O)[C@H](Cc2ccc(O)cc2)NC(=O)[C@H](CCCCN)NC1=O [Example 103] (cyclo(LRLKYRRFKYRV[dP]P)) | 25 (≈ 13.3 µM) | 12.5 (≈ 6.67 µM) | 25 (≈ 13.3 µM) | 9.4 (≈ 5.02 µM)
CC(C)C[C@@H]1NC(=O)[C@H](CCCNC(=N)N)NC(=O)[C@H](CC2CCCCC2)NC(=O)[C@@H]2CCCN2C(=O)[C@H]2CCCN2C(=O)[C@H](C(C)C)NC(=O)[C@H](CCCNC(=N)N)NC(=O)[C@H](Cc2ccc(O)cc2)NC(=O)[C@H](CCCCN)NC(=O)[C@H](Cc2c[nH]c3ccccc23)NC(=O)[C@H](CCCNC(=N)N)NC(=O)[C@H](CCCNC(=N)N)NC(=O)[C@H](CCCCN)NC(=O)[C@H](CCCCN)NC1=O [Example 121] (cyclo([Cha]RLKKRRWKYRV[dP]P)) | 6.2 (≈ 3.23 µM) | 6.2 (≈ 3.23 µM) | 6.2 (≈ 3.23 µM) | 25 (≈ 13 µM)
CC[C@H](C)[C@@H]1NC(=O)[C@H](CCCCN)NC(=O)[C@H](Cc2c[nH]c3ccccc23)NC(=O)[C@H](CCCNC(=N)N)NC(=O)[C@H](CCCNC(=N)N)NC(=O)[C@H](CCCCN)NC(=O)[C@H](CCCCN)NC(=O)[C@H](CC(C)C)NC(=O)[C@H](CCCNC(=N)N)NC(=O)[C@H](CC(C)C)NC(=O)[C@@H]2CCCN2C(=O)[C@H]2CCCN2C(=O)[C@H](C(C)C)NC(=O)[C@H](CCCNC(=N)N)NC1=O [Example 152] (cyclo(LRLKKRRWKIRV[dP]P)) | 25 (≈ 13.7 µM) | 12.5 (≈ 6.84 µM) | 50 (≈ 27.3 µM) | 25 (≈ 13.7 µM)
CCCC[C@@H]1NC(=O)[C@H](CCCCN)NC(=O)[C@H](Cc2c[nH]c3ccccc23)NC(=O)[C@H](CCCNC(=N)N)NC(=O)[C@H](CCCNC(=N)N)NC(=O)[C@H](CCCCN)NC(=O)[C@H](CCCCN)NC(=O)[C@H](CC(C)C)NC(=O)[C@H](CCCNC(=N)N)NC(=O)[C@H](CC(C)C)NC(=O)[C@@H]2CCCN2C(=O)[C@H]2CCCN2C(=O)[C@H](C(C)C)NC(=O)[C@H](CCCNC(=N)N)NC1=O [Example 154] (cyclo(LRLKKRRWK[Nle]RV[dP]P)) | 12.5 (≈ 6.84 µM) | 12.5 (≈ 6.84 µM) | 25 (≈ 13.7 µM) | 12.5 (≈ 6.84 µM)
